# In patent publication EP0338042B1, “COMPOSITION AND METHOD FOR TREATING HEPATITIS VIRUS INFECTIONS USING 1-(2'-DEOXY-2'-FLUORO-BETA-D-ARABINOFURANOSYL)-5-ETHYLURACIL” (priority 1987, dated 1989):
# Several values for one entry are separate records, joined by “and”; a condition that tells them apart may be missing. Identical values can stand only once. Like-named read-outs stand apart in the source and are kept apart here. Marks after values point to notes of the source that are not given here.
# Tests used:
# HSV-1(F) [1] = experiment: Plaque reduction assay in Vero cells; assay type: cell-based; conditions: monkey
# Excerpt: (§1) With FMAU as a lead compound, the syntheses of other 5-alkyl substituted 2′-fluoro-ara-uracils were undertaken (8, 9), including 1-(2′-deoxy-2′-fluoro-beta-D-arabinofuranosyl)-5-ethyluracil [FEAU].
# HSV-2(G) [2] = experiment: Plaque reduction assay in Vero cells; assay type: cell-based; conditions: monkey
# Excerpt: as §1
# L-1210 CELLS = experiment: Inhibition of thymidine incorporation into DNA; assay type: cell-based, rodent; conditions: Mus musculus, L1210, read-out: ED50 FOR […] INC[…] DNA, L-1210 CELLS; read-out: ED50 FOR INHIBITING THYMIDINE INCORPORATION INTO DNA, L-1210 CELLS
# HL-60 CELLS MIT[…] = molecular target: T1, HL-60 CELLS MIT[…] (Homo sapiens, UniProt O00142); experiment: Phosphorylation by thymidine kinase relative to thymidine; assay type: biochemical; conditions: thymidine at 400 µM
# T1 construct: cytosol and mitochondrial TK's derived from the HL-60 human cell line; endogenous in cells; host or cells: HL-60
# T1 sequence (O00142 34-265): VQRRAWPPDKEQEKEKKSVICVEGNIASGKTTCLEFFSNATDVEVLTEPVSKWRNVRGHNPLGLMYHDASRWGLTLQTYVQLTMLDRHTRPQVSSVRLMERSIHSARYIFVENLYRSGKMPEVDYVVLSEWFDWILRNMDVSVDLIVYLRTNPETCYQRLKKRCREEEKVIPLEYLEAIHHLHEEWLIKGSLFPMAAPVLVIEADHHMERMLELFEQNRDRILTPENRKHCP
# Excerpt: (§2) It is generally accepted that the selective anti-herpes activity of 2′-fluoro-arabinosylpyrimidine nucleosides is associated in large measure with their ability to be recognized as good substrates for HSV-specified thymidine kinase (TK), but not by the host TK (14, 15). […] By contrast, FEAU is a very poor substrate for the host HL-60 derived TKs (13). […] Their data also indicate that, in uninfected Vero cells, FEAU would be phosphorylated at a very low rate in the presence of thymidine.
# HSV-1 (STRAIN KOS) TK = HSV-1 (STRAIN KOS) TK (Human herpesvirus 1, UniProt P17402); experiment: as above; assay type: biochemical; conditions: thymidine at 400 µM
# Excerpt: as §2
# HSV-2 (STRAIN 333) TK = HSV-2 (STRAIN 333) TK (Human herpesvirus 2, UniProt P04407); experiment: as above; assay type: biochemical; conditions: thymidine at 400 µM
# Excerpt: as §2
# HSV-1(F) [3] = conditions: plaque reduction in Vero cells, cited from earlier work
# HSV-2(G) [4] = conditions: plaque reduction in Vero cells, cited from earlier work
# HSV-2 (STRAIN G) = conditions: cited from earlier work; for MDD: calculated on day 21; for %WT GAIN ON DAY 7 / %WT GAIN ON DAY 14 / %WT GAIN ON DAY 21 / %WT GAIN ON DAY 30: compared to day 1
# [5] = cited from earlier work
# [6] = tested on: simian varicella virus (SVV); experiment: Simian varicella virus infection in the African green monkey; conditions: for VIREMIA - MEAN PFU ON DAYS P.I. 3: IV twice daily for ten days from 48 hours after inoculation; for VIREMIA - MEAN PFU ON DAYS P.I. 5 / VIREMIA - MEAN PFU ON DAYS P.I. 7 / VIREMIA - MEAN PFU ON DAYS P.I. 9 / VIREMIA - MEAN PFU ON DAYS P.I. 11: IV twice daily for ten days
# [7] = FEAU 10 MG/KG/DAY, single surviving animal only
# [8] = FEAU 3 MG/KG/DAY, one line per monkey
# [9] = FEAU 10 MG/KG/DAY, one line per monkey
# [10] = FEAU 30 MG/KG/DAY, one line per monkey
# HSV-1 (STRAIN KOS) TK, sequence (P17402 whole entry, looked up): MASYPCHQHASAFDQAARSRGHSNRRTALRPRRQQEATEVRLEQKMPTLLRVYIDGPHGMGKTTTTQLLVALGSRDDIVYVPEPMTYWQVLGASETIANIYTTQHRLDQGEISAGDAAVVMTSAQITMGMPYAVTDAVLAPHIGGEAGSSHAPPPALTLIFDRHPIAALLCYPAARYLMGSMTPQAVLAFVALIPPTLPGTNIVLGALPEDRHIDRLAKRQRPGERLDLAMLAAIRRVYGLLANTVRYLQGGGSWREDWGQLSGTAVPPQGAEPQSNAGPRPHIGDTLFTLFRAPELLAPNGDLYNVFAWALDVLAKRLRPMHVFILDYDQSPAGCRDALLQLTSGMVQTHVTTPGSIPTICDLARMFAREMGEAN
# HSV-2 (STRAIN 333) TK, sequence (P04407 whole entry): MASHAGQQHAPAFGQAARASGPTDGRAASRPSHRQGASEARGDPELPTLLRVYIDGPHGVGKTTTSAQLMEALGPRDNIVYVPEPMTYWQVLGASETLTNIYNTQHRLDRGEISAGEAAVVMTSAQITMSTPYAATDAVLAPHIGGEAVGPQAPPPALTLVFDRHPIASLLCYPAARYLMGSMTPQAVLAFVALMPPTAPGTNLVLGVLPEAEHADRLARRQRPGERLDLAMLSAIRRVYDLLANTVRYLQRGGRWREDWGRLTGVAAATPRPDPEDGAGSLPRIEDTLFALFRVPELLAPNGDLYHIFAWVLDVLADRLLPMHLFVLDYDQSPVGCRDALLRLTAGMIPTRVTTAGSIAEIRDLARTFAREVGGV
compound,measurement,setting,value
"CCc1cn([C@@H]2O[C@H](CO)[C@@H](O)[C@@H]2F)c(=O)[nH]c1=O [FEAU, 1-(2'-deoxy-2'-fluoro-beta-D-arabino-furanosyl)-5-ethyl-uracil]",THER. INDEX ID₅₀/ED₉₀ HSV-1,HSV-1(F) [1],769
same,THER. INDEX ID₅₀/ED₉₀ HSV-2,HSV-2(G) [2],220
same,EC50,L-1210 CELLS,630 µM
same,"PERCENTAGE RATES OF PHOSPHORYLATION (RELATIVE TO THYMIDINE), HL-60 CELLS MITOCHONDRIAL TK",HL-60 CELLS MIT[…],219.0%
same,"PERCENTAGE RATES OF PHOSPHORYLATION (RELATIVE TO THYMIDINE), HSV-1 (STRAIN KOS) TK",HSV-1 (STRAIN KOS) TK,82.7% and 42.0%
same,"PERCENTAGE RATES OF PHOSPHORYLATION (RELATIVE TO THYMIDINE), HSV-2 (STRAIN 333) TK",HSV-2 (STRAIN 333) TK,203.2% and 146.6%
same,EC50,HSV-1(F) [3]; read-out: HSV-1(F) ED₅₀,0.024 µM
same,EC90,HSV-1(F) [3]; read-out: HSV-1(F) ED₉₀,0.26 µM
same,EC50,HSV-2(G) [4]; read-out: HSV-2(G) ED₅₀,0.24 µM
same,EC90,HSV-2(G) [4]; read-out: HSV-2(G) ED₉₀,0.91 µM
same,MDD,"HSV-2 (STRAIN G); FEAU 10 MG/KG/DAY, twice a day for 4 days from 5 hr after inoculation",9.4
same,% SURVIVORS,"HSV-2 (STRAIN G); FEAU 10 MG/KG/DAY, twice a day for 4 days",8%
same,%WT GAIN ON DAY 7,HSV-2 (STRAIN G); FEAU 10 MG/KG/DAY,-7%
same,%WT GAIN ON DAY 14,HSV-2 (STRAIN G); [7],-13^+ %
same,%WT GAIN ON DAY 21,HSV-2 (STRAIN G); [7],31^+ %
same,%WT GAIN ON DAY 30,HSV-2 (STRAIN G); [7],36^+ %
same,MDD,"HSV-2 (STRAIN G); FEAU 50 MG/KG/DAY, twice a day for 4 days from 5 hr after inoculation",11.8
same,% SURVIVORS,"HSV-2 (STRAIN G); FEAU 50 MG/KG/DAY, twice a day for 4 days",25%
same,%WT GAIN ON DAY 7,HSV-2 (STRAIN G); FEAU 50 MG/KG/DAY,3%
same,%WT GAIN ON DAY 14,HSV-2 (STRAIN G); FEAU 50 MG/KG/DAY,-10%
same,%WT GAIN ON DAY 21,HSV-2 (STRAIN G); FEAU 50 MG/KG/DAY,16%
same,%WT GAIN ON DAY 30,HSV-2 (STRAIN G); FEAU 50 MG/KG/DAY,25%
same,MDD,"HSV-2 (STRAIN G); FEAU 100 MG/KG/DAY, twice a day for 4 days from 5 hr after inoculation",11.0
same,% SURVIVORS,"HSV-2 (STRAIN G); FEAU 100 MG/KG/DAY, twice a day for 4 days",72%
same,%WT GAIN ON DAY 7,HSV-2 (STRAIN G); FEAU 100 MG/KG/DAY,2%
same,%WT GAIN ON DAY 14,HSV-2 (STRAIN G); FEAU 100 MG/KG/DAY,7%
same,%WT GAIN ON DAY 21,HSV-2 (STRAIN G); FEAU 100 MG/KG/DAY,13%
same,%WT GAIN ON DAY 30,HSV-2 (STRAIN G); FEAU 100 MG/KG/DAY,13%
same,MDD,"HSV-2 (STRAIN G); FEAU 200 MG/KG/DAY, twice a day for 4 days, parentheses: death of a single animal",(14)^#
same,% SURVIVORS,"HSV-2 (STRAIN G); FEAU 200 MG/KG/DAY, twice a day for 4 days",93%
same,%WT GAIN ON DAY 7,HSV-2 (STRAIN G); FEAU 200 MG/KG/DAY,0%
same,%WT GAIN ON DAY 14,HSV-2 (STRAIN G); FEAU 200 MG/KG/DAY,1%
same,%WT GAIN ON DAY 21,HSV-2 (STRAIN G); FEAU 200 MG/KG/DAY,9%
same,%WT GAIN ON DAY 30,HSV-2 (STRAIN G); FEAU 200 MG/KG/DAY,13%
same,toxicity,"HSV-2 (STRAIN G); HSV-2 infected mice, doses of 100-200 mg/kg/day",no toxicity was observed
same,toxicity,[5]; in vivo experiments with mice,relatively nontoxic
same,toxicity,"[5]; normal (uninfected) mice, 800 mg/kg/day given twice daily for 4 days",non-toxic
same,toxicity,"Toxicity in dogs; 50 mg/kg/day x 10, preliminary studies",moderate toxicity
same,lethal dose,"Toxicity in dogs; FMAU i.v. x 5, FEAU x 10 (preliminary)",100 mg/kg/day
same,minimal effective dose,"[6]; Cercopithecine alphaherpesvirus 9, in Primates",~1 mg/kg/day
same,RASH -SEVERITY ON DAYS P.I. 9,"[6]; FEAU 1 MG/KG/DAY by stomach tube twice daily for ten days, one line per monkey",±
same,VIREMIA - MEAN PFU ON DAYS P.I. 3,[6]; [8],1 PFU and 0 PFU
same,VIREMIA - MEAN PFU ON DAYS P.I. 5,[6]; [8],8 PFU and 1 PFU
same,VIREMIA - MEAN PFU ON DAYS P.I. 7,[6]; [8],0 PFU and 1 PFU
same,VIREMIA - MEAN PFU ON DAYS P.I. 9,[6]; [8],0 PFU
same,VIREMIA - MEAN PFU ON DAYS P.I. 11,[6]; [8],0 PFU
same,VIREMIA - MEAN PFU ON DAYS P.I. 3,[6]; [9],1 PFU and 0 PFU
same,VIREMIA - MEAN PFU ON DAYS P.I. 5,[6]; [9],14 PFU and 1 PFU
same,VIREMIA - MEAN PFU ON DAYS P.I. 7,[6]; [9],5 PFU and 1 PFU
same,VIREMIA - MEAN PFU ON DAYS P.I. 9,[6]; [9],0 PFU
same,VIREMIA - MEAN PFU ON DAYS P.I. 11,[6]; [9],0 PFU
same,VIREMIA - MEAN PFU ON DAYS P.I. 3,[6]; [10],1 PFU and 2 PFU
same,VIREMIA - MEAN PFU ON DAYS P.I. 5,[6]; [10],0 PFU
same,VIREMIA - MEAN PFU ON DAYS P.I. 7,[6]; [10],0 PFU
same,VIREMIA - MEAN PFU ON DAYS P.I. 9,[6]; [10],0 PFU
same,VIREMIA - MEAN PFU ON DAYS P.I. 11,[6]; [10],0 PFU
same,rash,"[6]; intravenous route, 30, 10 and 3 mg/kg/day x 10",none of the FEAU-treated monkeys developed rash
same,hematology tests and serum chemistries,"[6]; intravenous route, 30, 10 and 3 mg/kg/day x 10, all treated monkeys",normal
same,toxicity,"[6]; intravenous route, three dose levels up to 30 mg/kg/day x 10",no apparent toxicity
same,rash,[6]; lower dose of 1 mg/kg/day,prevented development of rash
same,viremia,[6]; lower dose of 1 mg/kg/day,did not reduce viremia in two of three monkeys
same,viremia,"[6]; oral administration, 10, 3 or 1 mg/kg/day x 10",reduced viremia significantly
same,toxicity,"[6]; oral route, 10 mg/kg/day x 10",without any observed toxicity
